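Step 1: Grow cells in 96-well plates. Step 2: Expose to compound for 48 hours at 5 concentrations. Step 3: Interpolate endpoints linearly; if unreached, use highest concentration. The concentration for 50% growth inhibition is given as GI50.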 Active and inactive are the calls of the source. Cut-off read from the data, not from the text of the source: active = GI50 up to about 1.1 µM and inactive = higher.
Experiments:
Test in all cases: inhibition of tumour cell growth, NCI panel, 48 h
LXFL 529 = test system: LXFL 529
XF498 = test system: XF498
M14 = test system: M14
KM12 = test system: KM12
SF-539 = test system: SF-539
IGROV-1 = test system: IGROV-1
Malme-3M = test system: Malme-3M
SN12C = test system: SN12C
RXF 393 = test system: RXF 393
786-0 = test system: 786-0
SF-268 = test system: SF-268
NCI-H460 = test system: NCI-H460
RPMI-8226 = test system: RPMI-8226
HL-60 = test system: HL-60
SF-295 = test system: SF-295
NCI-H23 = test system: NCI-H23
HCT-116 = test system: HCT-116
CAKI-1 = test system: CAKI-1
KM-20L2 = test system: KM-20L2
SK-MEL-28 = test system: SK-MEL-28
SK-MEL-5 = test system: SK-MEL-5
OVCAR-8 = test system: OVCAR-8
SR = test system: SR
SW-620 = test system: SW-620
OVCAR-5 = test system: OVCAR-5
HOP-92 = test system: HOP-92
DMS-273 = test system: DMS-273
DLD-1 = test system: DLD-1
UACC-257 = test system: UACC-257
CCRF-CEM = test system: CCRF-CEM
SK-OV-3 = test system: SK-OV-3
TK-10 = test system: TK-10
NCI-H226 = test system: NCI-H226
M19-MEL = test system: M19-MEL
A549 = test system: A549
K562 = test system: K562
UO-31 = test system: UO-31
HCT-15 = test system: HCT-15
EKVX = test system: EKVX
SNB-19 = test system: SNB-19
MOLT-4 = test system: MOLT-4
ACHN = test system: ACHN
OVCAR-3 = test system: OVCAR-3
U-251 = test system: U-251
UACC-62 = test system: UACC-62
OVCAR-4 = test system: OVCAR-4
HT-29 = test system: HT-29
DMS-114 = test system: DMS-114
SK-MEL-2 = test system: SK-MEL-2
COLO 205 = test system: COLO 205
HOP-62 = test system: HOP-62
A498 = test system: A498
SNB-75 = test system: SNB-75
SNB-78 = test system: SNB-78
HCC 2998 = test system: HCC 2998
LOX IMVI = test system: LOX IMVI
NCI-H522 = test system: NCI-H522
HOP-18 = test system: HOP-18

Measured: GI50

COc1cc([C@H]2c3cc4c(cc3[C@H](NCc3ccc([N+](=O)[O-])cc3)C3COC(=O)[C@H]32)OCO4)cc(OC)c1O (stereo not given in full)
inactive: LXFL 529 5.07 µM | XF498 3.32 µM | M14 1.97 µM | KM12 2.44 µM | IGROV-1 12.3 µM | Malme-3M 1.56 µM | RXF 393 3.37 µM | SF-268 1.47 µM | HCT-116 2.36 µM | KM-20L2 2.48 µM | SK-MEL-28 5.45 µM | SK-MEL-5 2.29 µM | OVCAR-8 1.63 µM | OVCAR-5 2.89 µM | HOP-92 2.81 µM | DLD-1 2.7 µM | UACC-257 7.96 µM | SK-OV-3 2.24 µM | TK-10 1.96 µM | M19-MEL 3.85 µM | K562 3.18 µM | UO-31 1.79 µM | EKVX 3.18 µM | OVCAR-3 3.08 µM | OVCAR-4 72.8 µM | HT-29 2.17 µM | DMS-114 2.62 µM | SK-MEL-2 4.38 µM | COLO 205 2.52 µM | SNB-75 1.45 µM | SNB-78 5.94 µM | HCC 2998 1.23 µM
1.61 µM: HCT-15
active: SF-539 0.745 µM | SN12C 0.807 µM | 786-0 0.877 µM | NCI-H460 < 0.0282 µM | RPMI-8226 0.938 µM | HL-60 1.02 µM | SF-295 0.681 µM | NCI-H23 0.398 µM | CAKI-1 0.424 µM | SR 0.0333 µM | SW-620 1.03 µM | DMS-273 0.661 µM | CCRF-CEM 0.251 µM | NCI-H226 0.324 µM | A549 0.213 µM | SNB-19 1.01 µM | MOLT-4 0.106 µM | ACHN 0.378 µM | U-251 0.655 µM | UACC-62 1.07 µM | HOP-62 0.26 µM | A498 0.378 µM | LOX IMVI 0.92 µM

Cc1cc2c([nH]c3ccccc32)c2c1OC(C)(C)C1C3CC(C)(C)Oc4c(C)cc5c6ccccc6n(c5c43)C21 (stereo not given)
inactive: LXFL 529 > 100 µM | M14 > 100 µM | KM12 > 100 µM | SF-539 > 100 µM | IGROV-1 > 100 µM | Malme-3M > 100 µM | SN12C > 100 µM | RXF 393 > 100 µM | 786-0 > 100 µM | NCI-H522 > 100 µM | SF-268 > 100 µM | NCI-H460 52.7 µM | RPMI-8226 > 100 µM | HL-60 > 100 µM | SF-295 > 100 µM | NCI-H23 > 100 µM | HCT-116 > 100 µM | CAKI-1 > 100 µM | KM-20L2 > 100 µM | SK-MEL-28 > 100 µM | SK-MEL-5 > 100 µM | OVCAR-8 > 100 µM | SR > 100 µM | SW-620 > 100 µM | OVCAR-5 > 100 µM | HOP-92 > 100 µM | DMS-273 > 100 µM | UACC-257 > 100 µM | CCRF-CEM > 100 µM | SK-OV-3 > 100 µM | TK-10 > 100 µM | M19-MEL > 100 µM | A549 > 100 µM | K562 > 100 µM | UO-31 > 100 µM | EKVX > 100 µM | SNB-19 > 100 µM | MOLT-4 > 100 µM | ACHN > 100 µM | OVCAR-3 > 100 µM | U-251 > 100 µM | UACC-62 > 100 µM | OVCAR-4 > 100 µM | HT-29 > 100 µM | DMS-114 > 100 µM | HOP-18 > 100 µM | SK-MEL-2 > 100 µM | COLO 205 > 100 µM | HOP-62 > 100 µM | A498 > 100 µM | SNB-75 > 100 µM | SNB-78 > 100 µM | HCC 2998 > 100 µM | LOX IMVI > 100 µM
> 100 µM: HCT-15

O=C(c1ccccc1)c1oc2ccc(Br)cc2c1-c1cnn(-c2ccccc2)c1
> 100 µM: HCT-15
inactive: LXFL 529 > 100 µM | XF498 > 100 µM | M14 > 100 µM | KM12 > 100 µM | IGROV-1 > 100 µM | Malme-3M > 100 µM | SN12C > 100 µM | RXF 393 > 100 µM | 786-0 > 100 µM | NCI-H522 7.48 µM | SF-268 > 100 µM | NCI-H460 > 100 µM | RPMI-8226 54.7 µM | HL-60 > 100 µM | SF-295 > 100 µM | NCI-H23 > 100 µM | CAKI-1 > 100 µM | KM-20L2 > 100 µM | SK-MEL-28 > 100 µM | SK-MEL-5 > 10 µM | OVCAR-8 > 10 µM | SW-620 > 10 µM | OVCAR-5 > 100 µM | HOP-92 > 100 µM | DMS-273 > 100 µM | DLD-1 > 100 µM | UACC-257 > 100 µM | CCRF-CEM > 100 µM | SK-OV-3 > 100 µM | TK-10 > 10 µM | M19-MEL > 100 µM | A549 > 10 µM | K562 > 100 µM | UO-31 > 100 µM | EKVX > 10 µM | SNB-19 > 100 µM | MOLT-4 > 100 µM | ACHN > 100 µM | OVCAR-3 > 100 µM | UACC-62 > 100 µM | OVCAR-4 > 100 µM | HT-29 > 100 µM | DMS-114 > 100 µM | SK-MEL-2 > 100 µM | COLO 205 > 100 µM | HOP-62 > 100 µM | SNB-75 > 100 µM | SNB-78 > 100 µM | HCC 2998 > 100 µM | LOX IMVI > 100 µM

CCOc1ccc2[nH]c3c(C)c4cc[n+](C)cc4c(C)c3c2c1
inactive: M14 8.41 µM | KM12 2.4 µM | IGROV-1 2.25 µM | RXF 393 8.71 µM | NCI-H460 1.89 µM | RPMI-8226 18.3 µM | HL-60 7.85 µM | HCT-116 3 µM | KM-20L2 4.95 µM | SK-MEL-28 3.1 µM | SK-MEL-5 1.55 µM | SW-620 2.05 µM | HOP-92 2.5 µM | DLD-1 1.66 µM | UACC-257 4.25 µM | CCRF-CEM 2.88 µM | SK-OV-3 2.92 µM | A549 1.95 µM | K562 2.1 µM | UO-31 20.9 µM | EKVX 4.24 µM | OVCAR-3 3.93 µM | UACC-62 2.77 µM | OVCAR-4 3.61 µM | HT-29 3.99 µM | HOP-18 4.03 µM | SK-MEL-2 2.42 µM | HCC 2998 3.27 µM
active: LXFL 529 0.348 µM | SF-539 0.65 µM | SN12C 0.279 µM | 786-0 0.255 µM | NCI-H522 1.11 µM | SF-268 0.271 µM | SF-295 0.25 µM | NCI-H23 0.838 µM | NCI-H226 0.451 µM | U-251 0.228 µM | SNB-78 0.662 µM

COc1cc2c(c3c1c(=O)c1ccccc1n3C)C=CC(C)(C)O2 [ACRONINE]
inactive: LXFL 529 94 µM | M14 > 100 µM | KM12 > 100 µM | SF-539 37.8 µM | IGROV-1 58.5 µM | Malme-3M > 100 µM | SN12C > 100 µM | RXF 393 25.1 µM | 786-0 71 µM | NCI-H522 18.5 µM | SF-268 > 100 µM | NCI-H460 43.6 µM | RPMI-8226 27.9 µM | HL-60 60.7 µM | SF-295 32.3 µM | NCI-H23 33.4 µM | HCT-116 > 100 µM | CAKI-1 > 100 µM | KM-20L2 49.9 µM | SK-MEL-28 48.6 µM | SK-MEL-5 > 100 µM | OVCAR-8 > 100 µM | SW-620 > 100 µM | OVCAR-5 > 100 µM | HOP-92 > 100 µM | DMS-273 23.3 µM | DLD-1 > 100 µM | UACC-257 > 100 µM | CCRF-CEM 79.1 µM | SK-OV-3 > 100 µM | TK-10 > 100 µM | NCI-H226 > 100 µM | M19-MEL 72.3 µM | A549 > 100 µM | K562 52.1 µM | UO-31 49.9 µM | SNB-19 > 100 µM | MOLT-4 16.2 µM | ACHN 45.4 µM | OVCAR-3 > 100 µM | U-251 > 100 µM | UACC-62 96.2 µM | OVCAR-4 > 100 µM | HT-29 56.9 µM | DMS-114 45.4 µM | HOP-18 56 µM | SK-MEL-2 > 100 µM | COLO 205 > 100 µM | HOP-62 46.9 µM | SNB-75 82.6 µM | SNB-78 > 100 µM | LOX IMVI > 100 µM
45.3 µM: HCT-15
active: SR 0.885 µM
